# Legend:
# Escherichia coli = experiment: Antimicrobial activity against Escherichia coli DC2; format: functional
# Streptococcus pyogenes [1] = experiment: Antimicrobial activity against Streptococcus pyogenes 308A; format: functional
# Streptococcus pyogenes [2] = experiment: Antimicrobial activity against Streptococcus pyogenes 77A; format: functional
# Staphylococcus aureus = experiment: Antimicrobial activity against Staphylococcus aureus 503; format: functional
# Pseudomonas aeruginosa [3] = experiment: Antimicrobial activity against Pseudomonas aeruginosa 9027; format: functional
# Pseudomonas aeruginosa [4] = experiment: Antimicrobial activity against Pseudomonas aeruginosa 1771M; format: functional
# Salmonella typhimurium = experiment: Antimicrobial activity against Salmonella Typhimurium; format: functional, Salmonella enterica subsp. enterica serovar Typhimurium; conditions: Salmonella enterica
# Enterobacter cloacae = experiment: Antimicrobial activity against Enterobacter cloacae 1321E; format: functional
MIC (Escherichia coli) [mg/L],MIC (Streptococcus pyogenes [1]) [mg/L],MIC (Streptococcus pyogenes [2]) [mg/L],MIC (Staphylococcus aureus) [mg/L],MIC (Pseudomonas aeruginosa [3]) [mg/L],MIC (Pseudomonas aeruginosa [4]) [mg/L],MIC (Salmonella typhimurium) [mg/L],MIC (Enterobacter cloacae) [mg/L],SMILES
12.5,12.5,6.3,6.3,12.5,25,50,100,"CC(CO)[C@H]1CC[C@H]2[C@@H]3[C@@H](F)C[C@H]4C[C@H](NCCCNCCCCN)CC[C@]4(C)[C@H]3CC[C@]12C (single isomer, unassigned)"
25,50,50,50,50,50,50,50,"CC(COS(=O)(=O)O)[C@H]1CC[C@H]2[C@@H]3[C@@H](F)C[C@H]4C[C@@H](NCCCNCCCCN)CC[C@]4(C)[C@H]3CC[C@]12C (single isomer, unassigned)"
12.5,12.5,12.5,6.3,12.5,6.3,100,100,"CC(CO)[C@H]1CC[C@H]2[C@@H]3[C@@H](F)C[C@H]4C[C@@H](NCCCNCCCCN)CC[C@]4(C)[C@H]3CC[C@]12C (single isomer, unassigned)"
50,25,12.5,12.5,50,100,100,100,"CC(CO)[C@H]1CC[C@H]2[C@@H]3[C@H](F)C[C@H]4C[C@H](NCCCNCCCCN)CC[C@]4(C)[C@H]3CC[C@]12C (single isomer, unassigned)"
25,12.5,12.5,12.5,25,50,100,100,"CC(COS(=O)(=O)O)[C@H]1CC[C@H]2[C@@H]3[C@H](F)C[C@H]4C[C@H](NCCCNCCCCN)CC[C@]4(C)[C@H]3CC[C@]12C (single isomer, unassigned)"
25,25,12.5,6.3,50,50,50,50,"CC(COS(=O)(=O)O)[C@H]1CC[C@H]2[C@@H]3[C@@H](F)C[C@H]4C[C@H](NCCCNCCCCN)CC[C@]4(C)[C@H]3CC[C@]12C (single isomer, unassigned)"
50,50,50,25,12.5,25,100,100,"CC(COS(=O)(=O)O)[C@H]1CC[C@H]2[C@@H]3[C@H](F)C[C@H]4C[C@@H](NCCCNCCCCN)CC[C@]4(C)[C@H]3CC[C@]12C (single isomer, unassigned)"
6.3,6.3,6.3,6.3,6.3,3.1,100,100,"CC(CO)[C@H]1CC[C@H]2[C@@H]3[C@H](F)C[C@H]4C[C@@H](NCCCNCCCCN)CC[C@]4(C)[C@H]3CC[C@]12C (single isomer, unassigned)"
12.5,100,100,6.3,12.5,6.3,50,100,"CC(CO)[C@H]1CC[C@H]2[C@@H]3CC[C@H]4C[C@@H](NCCCNCCCCN)CC[C@]4(C)[C@H]3CC[C@]12C (single isomer, unassigned)"
25,25,25,12.5,12.5,25,50,50,C[C@@H](CO)[C@H]1CC[C@H]2[C@@H]3[C@H](O)C[C@H]4C[C@@H](NCCCNCCCCN)CC[C@]4(C)[C@H]3CC[C@]12C
50,–,50,50,50,50,50,50,C[C@@H](COS(=O)(=O)O)[C@H]1CC[C@H]2[C@@H]3[C@H](O)C[C@H]4C[C@@H](NCCCNCCCCN)CC[C@]4(C)[C@H]3CC[C@]12C

# Reference: ChEMBL document CHEMBL1146250, “Synthesis and antimicrobial activity of 7-fluoro-3-aminosteroids” (2007)
